Experimental data as given in US5470737A, “Stably-transformed cells expressing human thiopurine methyltransferase” (priority 1994, dated 1995).
Entries after “also recorded” stand apart in the source; their conditions may differ.

Experiments:
[1] = tested on: patients with genetically low or undetectable RBC TPMT activity; details: patients lacking or with low TPMT activity; cited from earlier work
TPMT [2] = details: cited from earlier work
T84 cell TPMT [3] = molecular target: T1, T84 cell TPMT (Homo sapiens, UniProt P51580); assay: Panel of methyltransferase inhibitors and ions, T84 cell 100,000×g supernatant; format: biochemical
T1 construct: Cytosol from T84 cells did contain TPMT enzymatic activity; host or cells: T84 human colon carcinoma cells
T1 sequence (P51580 1-245): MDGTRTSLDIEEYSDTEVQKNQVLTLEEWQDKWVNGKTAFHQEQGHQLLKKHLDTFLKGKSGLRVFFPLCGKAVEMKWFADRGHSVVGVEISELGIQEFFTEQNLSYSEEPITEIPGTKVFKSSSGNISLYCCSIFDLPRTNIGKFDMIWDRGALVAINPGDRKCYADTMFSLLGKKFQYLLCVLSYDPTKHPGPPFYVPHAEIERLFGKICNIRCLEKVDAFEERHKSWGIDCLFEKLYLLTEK
Description: (§1) TPMT activity in renal tissue was measured by the method of R. M. Weinshilboum et al., in Clin. Chim. Acta, 85, 323 (1978) as modified by L. C. Woodson et al., Biochem. Pharmacol., 32, 819 (1983) to assay the enzyme in human kidney preparations. […] Ado-Met as the methyl donor. Assay conditions for the measurement of TPMT in T84 human colon carcinoma cells and in COS-1 cells were identical with those used to measure the enzyme activity in human renal tissue. One unit of TPMT activity represented the formation of 1 nmol of 6-MMP per hr of incubation at 37° C.
T84 human colon carcinoma cells (American Type Culture Collection, Rockville, Md.) were grown to confluence in an equal volume mixture of Dulbecco's modified Eagle's medium (DMEM) and Ham's F12 media with 5% fetal calf serum. The cells were then harvested, cell pellets were washed in phosphate buffered saline (PBS), and the pellets were homogenized for 30 sec in 1 ml of 5 mM potassium phosphate buffer, pH 7.5, with a Polytron homogenizer. Homogenates of the cells were centrifuged at 100,000×g for 1 hr at 4° C., and the supernatant was used to assay TPMT activity and to determine selected biochemical properties of the enzyme.
(§2) Finally, the response of the TPMT expressed in COS-1 cells to a panel of methyltransferase inhibitors and ions was compared with that of TPMT activity in human kidney 100,000×g supernatant, partially purified human kidney Peak I TPMT and T84 cell TPMT (Table 3).

[4] = molecular target: T2, TPMT, human kidney 100,000×g supernatant (Homo sapiens, UniProt P51580); assay: Panel of methyltransferase inhibitors and ions, human kidney 100,000×g supernatant; format: biochemical
T2 construct: renal tissue was homogenized in 5 mM potassium phosphate buffer, pH 7.5, with a Polytron homogenizer, and a 100,000×g supernatant was prepared; from tissue; host or cells: human kidney (renal tissue)
T2 sequence (P51580 1-245): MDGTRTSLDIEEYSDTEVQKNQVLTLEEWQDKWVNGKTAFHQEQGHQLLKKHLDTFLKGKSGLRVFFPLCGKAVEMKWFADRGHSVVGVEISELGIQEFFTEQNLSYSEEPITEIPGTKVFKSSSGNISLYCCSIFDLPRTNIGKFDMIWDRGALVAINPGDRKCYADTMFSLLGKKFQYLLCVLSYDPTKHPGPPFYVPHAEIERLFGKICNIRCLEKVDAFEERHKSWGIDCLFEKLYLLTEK
Description: Renal tissue was obtained either during autopsy or from patients undergoing clinically indicated nephrectomies. Hepatic tissue was obtained from patients who underwent clinically indicated partial hepatectomies for the removal of primary or metastatic hepatic tumors. All tissue was obtained under guidelines approved by the Mayo Clinic Institutional Review Board. Macroscopically normal tissue was stored at -80° C., conditions under which TPMT activity is stable (C. L. Szumlanski et al., Pharmacogenetics, 2, 148 (1992); J. A. Van Loon et al., Drug Met. Disposit., 18, 632 (1990)). Prior to enzyme purification, renal tissue was homogenized in 5 mM potassium phosphate buffer, pH 7.5, with a Polytron homogenizer, and a 100,000×g supernatant was prepared as described by L. C. Woodson et al., Biochem. Pharmacol., 32, 819 (1983). Amino acid sequence information was obtained with TPMT purified from human renal tissue--a tissue with a high specific activity for the enzyme.
as §1, §2

[5] = molecular target: T3, TPMT expressed in COS-1 cells transfected with T84 TPMT cDNA (Homo sapiens, UniProt P51580); assay: Panel of methyltransferase inhibitors and ions, COS-1 cells transfected with T84 TPMT cDNA; format: biochemical
T3 construct: digested with SstI to excise the coding region, the 5'-untranslated region and a portion (ca. 600 nucleotides) of the 3'-untranslated region; expressed in transfected cells; host or cells: COS-1 (simian), vector P91023(B)
T3 sequence (P51580 1-245): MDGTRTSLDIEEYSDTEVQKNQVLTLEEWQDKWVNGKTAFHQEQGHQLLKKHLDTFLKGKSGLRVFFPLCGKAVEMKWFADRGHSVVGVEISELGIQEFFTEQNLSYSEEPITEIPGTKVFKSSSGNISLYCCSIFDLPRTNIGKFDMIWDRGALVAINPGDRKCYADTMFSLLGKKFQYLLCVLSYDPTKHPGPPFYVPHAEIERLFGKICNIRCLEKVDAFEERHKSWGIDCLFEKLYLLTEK
Description: (§3) TPMT activity in renal tissue was measured by the method of R. M. Weinshilboum et al., in Clin. Chim. Acta, 85, 323 (1978) as modified by L. C. Woodson et al., Biochem. Pharmacol., 32, 819 (1983) to assay the enzyme in human kidney preparations. […] Assay conditions for the measurement of TPMT in T84 human colon carcinoma cells and in COS-1 cells were identical with those used to measure the enzyme activity in human renal tissue. One unit of TPMT activity represented the formation of 1 nmol of 6-MMP per hr of incubation at 37° C.
Simian COS-1 cells were then plated in 100-mm dishes at a density of 1.5-1.8×10^6 cells/dish in DMEM with 10% fetal calf serum, and were allowed to grow overnight. Three dishes of cells were used for each transfection. Purified "sense" plasmid vector (0.5 μg) was mixed with DEAE-dextran and DMEM, and the mixture was added to the cell culture dishes, following the procedures of J. H. McCutchan et al., J. Natl. Cancer Inst., 41, 351 (1988) and R. J. Kaufman et al., Mol. Cell. Biol., 9, 946 (1989). Control cells were treated with no DNA, with expression vector alone, or with constructs that contained the cDNA clone in an antisense orientation. After 1 hr, the DNA-DEAE-dextran solution was replaced for 2 min with DMEM that contained 10% dimethylsulfoxide, followed by incubation for 2 hr in 0.1 mM chloroquine in DMEM following the procedure of H. Luthman et al., Nucl. Acids Res., 11, 1295 (1983). Cells were then grown for 40-42 hr in DMEM with 10% fetal calf serum. The cells from each transfection were harvested and pooled, cell pellets were washed in 5 ml of PBS, and the cell pellets were homogenized for 30 sec in 2 ml of 5 mM potassium phosphate buffer, pH 7.5. Homogenates were centrifuged at 15,000×g for 15 min at 4° C., supernatants from that step were centrifuged at 100,000×g for 1 hr at 4° C., and 0.25 μl aliquots of 100,000×g supernatant preparations were then assayed for transient expression of TPMT enzymatic activity.

TPMT [6] = molecular target: T4, TPMT (Homo sapiens, UniProt P51580); assay: Inhibition of TPMT, all sources of enzyme (summary in words); format: biochemical
T4 construct: T84 cDNA transiently expressed in COS-1 cells, plus native human kidney 100,000×g supernatant, partially purified kidney Peak I and T84 cell enzyme
T4 sequence (P51580 1-245): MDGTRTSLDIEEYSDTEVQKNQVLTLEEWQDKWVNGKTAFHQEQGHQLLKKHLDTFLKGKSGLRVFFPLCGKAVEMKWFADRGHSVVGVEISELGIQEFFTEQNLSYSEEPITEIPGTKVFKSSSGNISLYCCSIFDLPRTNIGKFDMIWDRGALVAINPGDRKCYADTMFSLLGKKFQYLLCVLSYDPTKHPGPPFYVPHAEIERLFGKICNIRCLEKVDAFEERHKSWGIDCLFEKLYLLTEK
Source text: as §2
As shown by the data in Table 3, the results were nearly identical for all sources of enzyme and each activity was inhibited by the TPMT reaction products, Ado-Hcy and 6-MMP. However, the enzyme was not affected by inhibitors of other methyltransferase enzymes.

human kidney TPMT Peak I = molecular target: T5, human kidney TPMT Peak I (Homo sapiens, UniProt P51580); assay: Panel of methyltransferase inhibitors and ions, human kidney Peak I TPMT; format: biochemical
T5 construct: Human renal tissue contains two isoforms of TPMT, Peak I and Peak II, that can be separated by DEAE ion exchange chromatography; from tissue; host or cells: human kidney, DEAE Peak I, gel filtration
T5 sequence (P51580 1-245): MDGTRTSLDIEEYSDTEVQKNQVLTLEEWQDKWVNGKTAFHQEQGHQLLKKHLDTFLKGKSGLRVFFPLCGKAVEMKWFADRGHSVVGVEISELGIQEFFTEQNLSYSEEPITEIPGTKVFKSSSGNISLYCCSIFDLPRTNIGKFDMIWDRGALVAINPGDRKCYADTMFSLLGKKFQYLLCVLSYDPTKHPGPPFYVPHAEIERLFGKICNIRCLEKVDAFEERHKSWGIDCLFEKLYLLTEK
Source text: Human renal tissue contains two isoforms of TPMT, Peak I and Peak II, that can be separated by DEAE ion exchange chromatography as reported by J. A. Van Loon et al., Biochem. Genet., 20, 637 (1982). The two isoforms were separated by DEAE ion exchange chromatography, and the Peak I enzyme was then purified by gel filtration chromatography performed with Sephadex G-100 superfine as described by J. A. Van Loon et al., cited above. In some experiments, hydroxylapatite chromatography performed as described by J. A. Van Loon et al., in Biochem. Pharmacol., 44, 775 (1992) was added as a third purification step.
as §1, §2

[7] = tested on: thiol methyltransferase (TMT); details: cited from earlier work
[8] = substrate: Sc1ncnc2nc[nH]c12; assay: purified protein, by the assay type; details: other: T84 cells; 25 μM Ado-Met, 6-MP 0.11 to 6.8 mM; 37.0 °C
[9] = substrate: C[S+](CC[C@H](N)C(=O)O)C[C@H]1O[C@@H](n2cnc3c(N)ncnc32)[C@H](O)[C@@H]1O; assay: purified protein, by the assay type; details: other: T84 cells; 3.4 mM 6-MP, Ado-Met 0.78 to 25 μM; 37.0 °C
human kidney TPMT = molecular target: T6, human kidney TPMT (Homo sapiens, UniProt P51580); details: cited from earlier work
T6 construct: to assay the enzyme in human kidney preparations; host or cells: human kidney
T6 sequence (P51580 1-245): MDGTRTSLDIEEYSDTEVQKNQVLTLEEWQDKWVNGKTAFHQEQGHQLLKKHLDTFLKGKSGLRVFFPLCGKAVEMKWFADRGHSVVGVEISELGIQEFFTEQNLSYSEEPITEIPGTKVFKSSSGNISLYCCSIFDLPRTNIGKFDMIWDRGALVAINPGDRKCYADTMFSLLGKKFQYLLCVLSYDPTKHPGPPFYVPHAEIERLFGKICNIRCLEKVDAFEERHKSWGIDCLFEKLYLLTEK

[10] = tissue stored at -80° C.; cited from earlier work
T84 cell TPMT [11] = molecular target: T1, T84 cell TPMT; assay: TPMT biochemical characteristics: pH optimum and apparent Km, T84 cells; details: 150 mM potassium phosphate buffer, seven pH values 5.5 to 8.5
Description: as §3

[12] = read-out: Activity Remaining, %

In the case of Cn1cnc([N+](=O)[O-])c1Sc1ncnc2nc[nH]c12 [azathioprine], the “risk of myelosuppression (in words)” value [1] is listed as “even more at risk for the occurrence of severe myelosuppression; also recorded: greatly increased risk for the development of life-threatening thiopurine-induced myelosuppression” and the “substrate for TPMT (in words)” value (TPMT [2]) is listed as “substrates for TPMT”.

For Nc1ncnc2c1ncn2[C@@H]1O[C@H](CSCC[C@H](N)C(=O)O)[C@@H](O)[C@H]1O [Ado-Hcy, S-adenosyl-L-homocysteine], the remaining activity at 100 µM (T84 cell TPMT [3]; [12]) was 5%, the remaining activity at 100 µM [4, 12] was 5% and the remaining activity at 100 µM [5, 12] was 5%. For the same molecule, the “effect on TPMT activity (in words)” value (TPMT [6]) was “inhibited” and the remaining activity at 100 µM (human kidney TPMT Peak I; [12]) was 5%.

With CC(N)c1cccc(Cl)c1Cl (stereo not drawn) [DCMB, 2,3-dichloro-α-methylbenzylamine] the remaining activity at 1000 µM (T84 cell TPMT [3]; [12]) was 99%, the remaining activity at 1000 µM [4, 12] was 95% and the remaining activity at 1000 µM [5, 12] was 95%. For the same molecule, the “effect on TPMT activity (in words)” value (TPMT [6]) was “not affected”, the “inhibition of thiol methyltransferase (in words)” value [7] was “inhibitors of thiol methyltransferase” and the remaining activity at 1000 µM (human kidney TPMT Peak I; [12]) was 95%.

With CCCC(C(=O)OCCN(CC)CC)(c1ccccc1)c1ccccc1 [SKF-525A] the remaining activity at 500 µM (T84 cell TPMT [3]; T84 cell 100,000×g supernatant, 0.5 mM) was 102%, the remaining activity at 500 µM ([4]; human kidney 100,000×g supernatant, 0.5 mM) was 107% and the remaining activity at 500 µM ([5]; COS-1 cells transfected with T84 TPMT cDNA, 0.5 mM) was 101%. The “effect on TPMT activity (in words)” value (TPMT [6]) was “not affected”, the “inhibition of thiol methyltransferase (in words)” value [7] was “inhibitors of thiol methyltransferase” and the remaining activity at 500 µM (human kidney TPMT Peak I; human kidney TPMT Peak I, 0.5 mM) was 98%.

B1: T84 cell TPMT (Homo sapiens) (protein)
chain: MDGTRTSLDIEEYSDTEVQKNQVLTLEEWQDKWVNGKTAFHQEQGHQLLKKHLDTFLKGKSGLRVFFPLCGKAVEMKWFADRGHSVVGVEISELGIQEFFTEQNLSYSEEPITEIPGTKVFKSSSGNISLYCCSIFDLPRTNIGKFDMIWDRGALVAINPGDRKCYADTMFSLLGKKFQYLLCVLSYDPTKHPGPPFYVPHAEIERLFGKICNIRCLEKVDAFEERHKSWGIDCLFEKLYLLTEK
In the case of B1, the Km [8] is given as 710 µM, the Km [9] is given as 5.1 µM and the “pH Optimum” value (human kidney TPMT) is given as 6.5. The “stability of TPMT activity (in words)” value [10] was “stable” and the “pH Optimum” value (T84 cell TPMT [11]) was 6.5.
